Measured values published in ChEMBL document CHEMBL1152855, “Regioselective synthesis of dispiro[1H-indene-2,3'-pyrrolidine-2',3''-[3H]indole]-1,2''(1''H)-diones of potential anti-tumor properties” (2009).

Key:
Format in all cases: functional
Details in all cases: route intraperitoneal
Rattus norvegicus [1] = assay: Antiinflammatory activity against carrageenan-induced paw edema in Wister albino rat assessed as inhibition of edema at 50 mg/kg, ip administered 1 hr prior to carrageenan challenge measured after 4 hrs relative to control
Rattus norvegicus [2] = assay: Antiinflammatory activity against carrageenan-induced paw edema in Wister albino rat assessed as inhibition of edema at 50 mg/kg, ip administered 1 hr prior to carrageenan challenge measured after 4 hrs relative to indomethacin
Rattus norvegicus [3] = assay: Antiinflammatory activity against carrageenan-induced paw edema in Wister albino rat assessed as inhibition of edema at 50 mg/kg, ip administered 1 hr prior to carrageenan challenge measured after 1 hr relative to control
Rattus norvegicus [4] = assay: Antiinflammatory activity against carrageenan-induced paw edema in Wister albino rat assessed as inhibition of edema at 50 mg/kg, ip administered 1 hr prior to carrageenan challenge measured after 2 hrs relative to control
Rattus norvegicus [5] = assay: Antiinflammatory activity against carrageenan-induced paw edema in Wister albino rat assessed as inhibition of edema at 50 mg/kg, ip administered 1 hr prior to carrageenan challenge measured after 3 hrs relative to control
Rattus norvegicus [6] = assay: Antiinflammatory activity against carrageenan-induced paw edema in Wister albino rat assessed as inhibition of edema at 10 mg/kg, ip administered 1 hr prior to carrageenan challenge measured after 1 hr relative to control
Rattus norvegicus [7] = assay: Antiinflammatory activity against carrageenan-induced paw edema in Wister albino rat assessed as inhibition of edema at 10 mg/kg, ip administered 1 hr prior to carrageenan challenge measured after 2 hrs relative to control
Rattus norvegicus [8] = assay: Antiinflammatory activity against carrageenan-induced paw edema in Wister albino rat assessed as inhibition of edema at 10 mg/kg, ip administered 1 hr prior to carrageenan challenge measured after 3 hrs relative to control
Rattus norvegicus [9] = assay: Antiinflammatory activity against carrageenan-induced paw edema in Wister albino rat assessed as inhibition of edema at 10 mg/kg, ip administered 1 hr prior to carrageenan challenge measured after 4 hrs relative to control

Compound	inhibition in vivo at 50 mg/kg (Rattus norvegicus [1])	activity relative to indomethacin (Rattus norvegicus [2])	inhibition in vivo at 50 mg/kg (Rattus norvegicus [3])	inhibition in vivo at 50 mg/kg (Rattus norvegicus [4])	inhibition in vivo at 50 mg/kg (Rattus norvegicus [5])	inhibition in vivo at 10 mg/kg (Rattus norvegicus [6])	inhibition in vivo at 10 mg/kg (Rattus norvegicus [7])	inhibition in vivo at 10 mg/kg (Rattus norvegicus [8])	inhibition in vivo at 10 mg/kg (Rattus norvegicus [9])
[3H]N1C(=O)[C@@]2(c3ccccc31)N(C)C[C@@H](c1ccco1)[C@@]21Cc2ccccc2C1=O	33.5%	69%	48.8%	53.6%	38.8%	–	–	–	–
[3H]N1C(=O)[C@@]2(c3ccccc31)N(C)C[C@@H](c1ccc(F)cc1)[C@@]21Cc2ccccc2C1=O	21.8%	45%	40.6%	21.2%	21.1%	–	–	–	–
[3H]N1C(=O)[C@@]2(c3ccccc31)N(C)C[C@@H](c1ccc(C)cc1)[C@@]21Cc2ccccc2C1=O	17.1%	35%	56.4%	23.8%	27.4%	–	–	–	–
[3H]C([3H])([3H])N1C(=O)[C@@]2(c3ccccc31)N(C)C[C@@H](c1ccc(F)cc1)[C@@]21Cc2ccccc2C1=O	25.5%	53%	52.9%	24.6%	26.9%	–	–	–	–
[3H]N1C(=O)[C@@]2(c3ccccc31)N(C)C[C@@H](c1ccccc1)[C@@]21Cc2ccccc2C1=O	39.3%	81%	56%	40%	42.5%	–	–	–	–
[3H]C([3H])([3H])N1C(=O)[C@@]2(c3ccccc31)N(C)C[C@@H](c1ccco1)[C@@]21Cc2ccccc2C1=O	8.2%	17%	50.1%	33.1%	17.5%	–	–	–	–
[3H]C([3H])([3H])N1C(=O)[C@@]2(c3ccccc31)N(C)C[C@@H](c1ccc(C)cc1)[C@@]21Cc2ccccc2C1=O	13.9%	29%	46.9%	8%	6.4%	–	–	–	–
COc1ccc2c(c1)c(CC(=O)O)c(C)n2C(=O)c1ccc(Cl)cc1 [INDOMETHACIN]	–	–	–	–	–	51%	45.6%	48.3%	48.5%
